# System: P815
# Assay: Cytotoxicity tested against P815 (murine mastocytoma) cell line using MTT assay
# Assay type: functional, cell-based
# Details: Mus musculus
row,Compound,IC50
1,NCCCCNC(=O)c1cc(NC(=O)c2nc(NC(=O)CCCC(=O)Nc3ccc4oc(C(=O)N5CC(CCl)c6ccc(O)cc65)cc4c3)c[nH]2)c[nH]1 (stereo not drawn),77 µM
2,NCCCCNC(=O)c1cc(NC(=O)c2cc(NC(=O)CCCC(=O)Nc3ccc4oc(C(=O)N5CC(CCl)c6ccc(O)cc65)cc4c3)c[nH]2)c[nH]1 (stereo not drawn),41 µM
3,NCCCCNC(=O)c1nc(NC(=O)c2cc(NC(=O)CCCC(=O)Nc3ccc4oc(C(=O)N5CC(CCl)c6ccc(O)cc65)cc4c3)c[nH]2)c[nH]1 (stereo not drawn),9.1 µM
4,NCCCCNC(=O)c1nc(NC(=O)c2nc(NC(=O)CCCC(=O)Nc3ccc4oc(C(=O)N5CC(CCl)c6ccc(O)cc65)cc4c3)c[nH]2)c[nH]1 (stereo not drawn),52 µM

# System: L1210
# Assay: Cytotoxicity tested against L1210 (murine leukemia) cell line using MTT assay
# Assay type: functional, cell-based
# Details: Mus musculus
row,Compound,IC50
1,NCCCCNC(=O)c1cc(NC(=O)c2nc(NC(=O)CCCC(=O)Nc3ccc4oc(C(=O)N5CC(CCl)c6ccc(O)cc65)cc4c3)c[nH]2)c[nH]1 (stereo not drawn),45 µM
2,NCCCCNC(=O)c1cc(NC(=O)c2cc(NC(=O)CCCC(=O)Nc3ccc4oc(C(=O)N5CC(CCl)c6ccc(O)cc65)cc4c3)c[nH]2)c[nH]1 (stereo not drawn),28 µM
3,NCCCCNC(=O)c1nc(NC(=O)c2cc(NC(=O)CCCC(=O)Nc3ccc4oc(C(=O)N5CC(CCl)c6ccc(O)cc65)cc4c3)c[nH]2)c[nH]1 (stereo not drawn),6.7 µM
4,NCCCCNC(=O)c1nc(NC(=O)c2nc(NC(=O)CCCC(=O)Nc3ccc4oc(C(=O)N5CC(CCl)c6ccc(O)cc65)cc4c3)c[nH]2)c[nH]1 (stereo not drawn),6.8 µM

# Source: ChEMBL document CHEMBL1134876, “Sequence selective recognition of DNA by hairpin conjugates of a racemic seco-cyclopropaneindoline-2-benzofurancarboxamide and polyamides” (Bioorg Med Chem Lett, 2002)
